Reference: patent US6429024B1, “Test method for IgA nephropathy” (Asahi Kasei Kabushiki Kaisha, priority 1998, dated 2002)

Tested on: antibody recognizing the core peptide of the hinge region in IgA1 (IgG class, serum of patient with IgA nephropathy)
Assay: Assay of inhibitory activities of various synthetic peptides (enzyme immunoassay: patient serum pre-incubated with peptide, then reacted with immobilized IgA1 hinge core peptide-BSA antigen)
Assay type: binding
Settings: synthetic peptide 1 μg/ml in PBS mixed 1:1 with 1/50 diluted serum, room temperature 3 hours; peroxidase labeled anti-human IgG; absorbancy at 490 nm
Procedure: Antigen was prepared according to the method described in the above example 1 (1).
The above antigen solution was dissolved to […] in 0.015 M carbonate buffer (pH 9.6) and each 100 μl was added in each well of the 96 well microtiter plate (A Flow General Co., Linbro/Titertek EIA Microtitration plate, Cat. No. 76-381-04), then incubated at 4° C. overnight (standing culture).
PBS (0.01 M phosphate buffer, pH 7.5 containing 0.15 M NaCl) solution (200 μl) containing 1% bovine serum albumin (fraction V, purchased from SIGMA Inc.) was added in each well, and incubated at 4° C. overnight. Each well was washed with 200 μl of PBS. The antigen was immobilized.
Synthetic peptide [the core peptide constructing a part of the hinge region in IgA1 as follows:
was dissolved to 1 μg/ml with PBS. The above diluted serum of patient with IgA nephropathy and the solution of synthetic peptide were mixed in equal volume (1:1). Also the above diluted serum of patient with IgA nephropathy and PBS without containing synthetic peptide (hereinafter designated as blank solution) were mixed in equal volume (1:1). These mixtures were incubated at room temperature for 3 hours.
After termination of the incubation, each solution (100 μl) was added in each well, which was provided with the antigen immobilized therein, of the 96 well microtiter plate and incubated at room temperature for 3 hours.
Each well was washed three times with 200 μl of PBS containing 0.1% bovine serum albumin, 0.05% Tween-20 (hereinafter designated as PS/BSA/Tween).
A solution (100 μl) of peroxidase labeled anti-human IgG (purchased from Organon Tecknika Inc.), which was diluted to 1/200 with PBS, was added in each well.
After incubation at room temperature for 1 hour, each well was washed three times with PS/BSA/Tween (200 μl).
Coloring agent (100 μl)(orthophenylenediamine 20 mg, sodium […]·12H2O 1.795 g, citric acid 0.525 g, and hydrogen peroxide 15 μl were dissolved in water 50 ml) was added in each well, and incubated at room temperature for 1 hour.
After the incubation was terminated, absorbency at 490 nm was measured using microplate reader (Bio-Red Inc., Microplate reader Model 450).

| Substance | inhibitory action on the reaction of patient serum with the core peptide of the hinge region in IgA1 |
| --- | --- |
| Leu Lys Pro Asp Pro (LKPDP; listed as Bovine sp.) [core peptide constructing a part of the bovine serum albumin, reference compound] | no inhibitory action on the reaction was observed |
| Leu Pro Pro Leu Thr (LPPLT; listed as Bovine sp.) [core peptide constructing a part of the bovine serum albumin, reference compound] | no inhibitory action on the reaction was observed |
| Pro Ser Pro Ser Cys (PSPSC) [core peptide constructing a part of the hinge region in IgA1] | inhibitory action on the reaction was observed |
| Pro Ser Pro Ser Thr (PSPST) [core peptide constructing a part of the hinge region in IgA1] | inhibitory action on the reaction was observed |
| Pro Ser Thr Pro Pro (PSTPP) [core peptide constructing a part of the hinge region in IgA1] | inhibitory action on the reaction was observed |
| Pro Thr Pro Ser Pro (PTPSP) [core peptide constructing a part of the hinge region in IgA1] | inhibitory action on the reaction was observed |
| Pro Val Pro Ser Thr (PVPST) [core peptide constructing a part of the hinge region in IgA1] | inhibitory action on the reaction was observed |
| Ser Pro Asp Leu Pro (SPDLP; listed as Bovine sp.) [core peptide constructing a part of the bovine serum albumin, reference compound] | no inhibitory action on the reaction was observed |
| Thr Pro Asp Glu Thr (TPDET; listed as Bovine sp.) [core peptide constructing a part of the bovine serum albumin, reference compound] | no inhibitory action on the reaction was observed |
| Thr Pro Pro Thr Pro (TPPTP) [core peptide constructing a part of the hinge region in IgA1] | inhibitory action on the reaction was observed |
| Thr Pro Val Glu Ser (TPVES; listed as Bovine sp.) [core peptide constructing a part of the bovine serum albumin, reference compound] | no inhibitory action on the reaction was observed |
